Measured values from patent publication US20070141146A1, “Novel compositions” (SMITHKLINE BEECHAM PHARMCO PUERTO RICO INCORPORATE, priority 2003, published 2007).
≈ marks a conversion by molar mass, not a printed value.

Assay: pH dependent solubility of Compound A
Assay type: physicochemical
Text: The pH dependent solubility and potential rapid release in the stomach of Compound A causes difficulties in the formulation or oral dosage forms. It is desirable that release is controlled to take place over a period of hours. Such a formulation would require dosing only once a day, and this is likely to improve patient compliance.

solubility (aqueous buffer, pH 7, near neutral pH of the small intestine): ~80 µg/mL (≈ 0.224 mM)
solubility (simulated gastric fluid, pH 2, acidic regions associated with the stomach): ~5000 µg/mL (≈ 14 mM)
Compound: CN(CCOc1ccc(CC2SC(=O)NC2=O)cc1)c1ccccn1 (centres unmarked) [Compound A, 5-[4-[2-(N-methyl-N-(2 pyridyl)amino)ethoxy]benzyl]thiazolidine-2,4-dione]
